Results from patent US10624917B2, “Compositions and methods useful for treating or preventing liver diseases or disorders, and promoting weight loss” (YALE UNIVERSITY, priority 2014, dated 2020).

Test system: IL-1β production in liver Kupffer cells
Assay: IL-1β secretion by LPS/ATP-stimulated Kupffer cells
Format: cell-based, mouse
Conditions: LPS and ATP
Method: FIGS. 6A-6B illustrate the finding that bone marrow macrophages and liver Kupffer cells increase IL-1β in response to adenosine signaling. FIG. 6A: Murine bone marrow derived macrophages (BMDM) were primed with LPS for 16 hours, treated with NECA (10 μM) for 1 hour, and then pulsed with ATP. FIG. 6b: Primary murine liver Kupffer cells were primed with LPS for 16 hours, treated with NECA (10 μM) for 1 hour, and then pulsed with ATP. IL-1β secretion was measured in supernatants 5 hours after pulsing with ATP. Data are expressed as the mean±SD from at least three independent experiments. *p<0.05 determined by Student's t-test.
C57BL/6 mice were purchased from the National Cancer Institute. ASC−/−, Caspase-1−/−, Nlrp3−/− and P2xr7−/− mice have been described (Rock et al., 2010, Annu Rev Immunol. 28:321-42). A2ora2a flox/flox mice and LysMcre mice were purchased from Jackson Laboratories. HIF-1a flox/flox mice were kindly provided by Dr. Ruslan M Medzhitov (Yale University). 7- to 12-week-old males with a variety of genetic manipulations were used in most experiments. […]
Primed PECs were both pulsed for 20 min with 5 mM ATP or 10 μM nigericin, and left untreated until culture supernatants were collected. Secretion of IL-1β was determined by enzyme-linked immunoabsorbent assay (ELISA; R&D Systems).

CCNC(=O)[C@H]1O[C@@H](n2cnc3c(N)ncnc32)[C@H](O)[C@@H]1O [NECA, 5′-(N-ethylcarboxamido) adenosine]
IL-1β production: significantly increased
